Data taken from US4801616A, “Diphenylmethanone compounds and anti-inflammatory use thereof” (Eli Lilly and Company, priority 1986, dated 1989).

Columns and labels:
[1] = target: T1, fatty acid cyclooxygenase (Homo sapiens, UniProt P23219); experiment: Fatty Acid Cyclooxygenase (FCO) Assay, inhibition of PGE2 formation by purified human platelet enzyme; assay type: biochemical; conditions: percent inhibition at 30 μg/ml
T1 construct: The solubilized fatty acid cyclooxygenase was applied to a 440 ml electrofocusing column; from tissue; host or cells: human platelets: microsomes solubilized with Triton X-100, purified by electrofocusing and G-200 Sephadex
T1 sequence (P23219 24-599): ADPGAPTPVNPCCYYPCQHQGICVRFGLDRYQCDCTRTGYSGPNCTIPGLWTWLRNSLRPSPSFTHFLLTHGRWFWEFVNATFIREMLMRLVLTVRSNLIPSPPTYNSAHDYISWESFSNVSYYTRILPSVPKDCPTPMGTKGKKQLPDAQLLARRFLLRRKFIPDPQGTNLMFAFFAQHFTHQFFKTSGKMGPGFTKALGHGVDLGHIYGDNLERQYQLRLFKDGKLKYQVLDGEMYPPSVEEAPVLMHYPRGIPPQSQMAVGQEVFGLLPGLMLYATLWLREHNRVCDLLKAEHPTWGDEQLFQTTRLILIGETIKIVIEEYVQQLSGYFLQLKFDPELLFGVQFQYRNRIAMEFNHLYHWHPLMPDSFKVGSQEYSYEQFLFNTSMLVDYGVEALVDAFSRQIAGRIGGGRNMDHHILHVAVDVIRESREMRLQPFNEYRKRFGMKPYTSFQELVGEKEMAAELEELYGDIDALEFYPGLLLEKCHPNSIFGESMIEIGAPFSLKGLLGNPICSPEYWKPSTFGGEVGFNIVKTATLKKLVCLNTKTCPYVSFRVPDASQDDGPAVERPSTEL
Method: Fatty Acid Cyclooxygenase (FCO) Assay
Microsomes were prepared from 185 bags of human platelets (each bag containing the platelets from one pint of blood prepared using differential centrifugation procedures). The platelets from approximately 60 bags were prepared at one time. Platelet-rich plasma (500 g) was centrifuged at 10,000×g for 20 minutes, and the platelet pellet was suspended in 100 ml of 0.1M potassium phosphate buffer, pH 8.0, with a Teflon glass homogenizer and sonicated for 5.0 minutes with a Bronson Sonifier (Model 350) in a rosette flask cooled in ice water. Disrupted platelets were centrifuged 15 minutes at 10,000× g. The supernatant was centrifuged at 100,000× g for 90 minutes and the microsomal pellets were homogenized in 25 ml of 20% sucrose containing 1.0% Triton X-100 detergent. After 30 minutes at 4° C., the solubilized microsomes were centrifuged at 100,000× g for 60 minutes. The yellow supernatant was removed and stored at -70 ° C.
The solubilized fatty acid cyclooxygenase was applied to a 440 ml electrofocusing column (LKB-8012) containing 1% phisolytes (Brinkman Instruments, Westburgh, NY), pH 2-11, with the cathode at the top of the column. The enzyme was layered onto the column at the appropriate time so that its sucrose concentration was equal to that of the column gradient. This was accomplished by checking the gradient concentration periodically with a sucrose hand refractometer. Electrofocusing was carried out for 16 hours with an initial voltage of 400 V and a final voltage of 900-1,000 volts. Fractions were collected (20 ml) and assayed for PGE2 formation. Active peak fractions were pooled and concentrated by ultrafiltration (XM 100A) to a volume of 3-5 ml.
Active fractions from electrofocusing were applied to a G-200 Sephadex column (2 cm×46 cm) and eluted with 10 mM potassium phosphate buffer, pH 7.0, in 5 ml fractions. After assay, active fractions were poored and concentrated to 1.0 ml by ultrafiltration (XM 100A), and kept frozen at -70° C.
Enzyme activity was determined by assaying for PGE2 formation by preincubating the enzyme with 10 mmol/l imidazole phosphate buffer, pH 8.0, 2 mmol/l epinephrine, 2 mmol/l methemoglobin, and the test compound (30 μg/ml) in a total volume of 0.2 ml for one minute at 37° C. After preincubation, 5 mmol/l ^14 C-arachidonic acid were added and the mixture was incubated an additional 0.5 minutes at 37° C. The enzyme reaction was stopped by the addition of 2 μl of indomethacin (2 mg/ml) in alcohol.
The reaction mixture was spotted (50 μl) on a silica gel (LQ6D) plate and subjected to TLC. The solvent system consisted of chloroform-methanol-glacial acetic acid (90:5:5, v/v/v) and the relative mobilities were PGF2α =0.235, and PGE2 =0.47. The silica gel on the plate was scraped in 1 cm sections, suspended in 5 ml of the scintillation fluid [5.88 g of 2,5-diphenyloxazole and 118 mg of 1,4 -bis(5-phenyloxazol-2-yl)benzene] dissolved in 650 ml of toluene and 350 ml of Triton X-100) and the radioactivity was determined in an Isocap/300 liquid scintillation counter (Searle Analytic, Inc., Southfield, Mich.). Another 50 μl of the mixture was added to 10 ml of the Triton X-100 based scintillation fluid, and the radioactivity was determined so that the amount of radioactivity recovery from the TLC plate could be ascertained. PGE2 formation for each test compound was determined as a percent of control experiments wherein no test compound was added. Data is expressed in Table I either as the percent inhibition of formation of PGE2 at a test compound concentration of 30 μ g/ml, or as an IC50 for inhibition of PGE2 formation.

5-lipoxygenase = target: T2, 5-lipoxygenase (Cavia porcellus, UniProt A0A286X958); experiment: 5-Lipoxygenase (5-LPO) Assay, inhibition of 5-HETE formation in PMNL sonicate supernatant; assay type: biochemical, guinea pig; conditions: guinea pig PMNL sonicate supernatant, 37° C., 5 μM 14C-arachidonic acid
T2 construct: incubating 0.2 ml of the supernatant obtained from the PMNL sonicate with the test compound; from tissue; host or cells: casein-elicited guinea pig peritoneal polymorphonuclear leukocytes (PMNL, more than 95 percent of the cells), sonicated, 30,000 x g supernatant
T2 sequence (A0A286X958 1-674): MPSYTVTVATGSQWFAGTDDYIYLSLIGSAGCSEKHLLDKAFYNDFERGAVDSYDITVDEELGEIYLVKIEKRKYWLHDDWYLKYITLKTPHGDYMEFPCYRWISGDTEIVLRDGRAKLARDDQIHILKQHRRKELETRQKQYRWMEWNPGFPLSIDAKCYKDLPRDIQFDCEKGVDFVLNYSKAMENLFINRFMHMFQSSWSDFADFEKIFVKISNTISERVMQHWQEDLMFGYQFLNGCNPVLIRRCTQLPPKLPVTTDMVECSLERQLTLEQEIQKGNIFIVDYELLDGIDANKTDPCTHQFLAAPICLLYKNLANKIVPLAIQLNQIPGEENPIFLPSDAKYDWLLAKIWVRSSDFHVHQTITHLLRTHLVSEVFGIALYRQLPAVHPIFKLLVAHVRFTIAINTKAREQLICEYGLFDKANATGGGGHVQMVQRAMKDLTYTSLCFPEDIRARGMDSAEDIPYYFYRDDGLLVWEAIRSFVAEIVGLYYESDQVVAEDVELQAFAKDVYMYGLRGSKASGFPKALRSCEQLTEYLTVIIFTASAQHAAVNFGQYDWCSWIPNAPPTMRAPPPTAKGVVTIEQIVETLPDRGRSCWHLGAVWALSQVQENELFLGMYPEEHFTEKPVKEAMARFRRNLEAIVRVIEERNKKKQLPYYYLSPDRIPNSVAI
Method: 5-Lipoxygenase (5-LPO) Assay
Ten milliliters of a 2% casein solution were injected intraperitoneally into guinea pigs weighing 250-300 gm. After 16-18 hours, the guinea pigs were killed by suffocation in a carbon dioxide chamber. The peritoneal cavity was infused with 70 ml of saline and 40-50 ml of the fluid were recovered from the cavity. After centrifugation, cell pellets were washed twice in Hank's balanced salt solution (HBSS) without calcium ion.
The cells were then suspended in 5 ml of sodium phosphate buffer, pH 7.1 containing 1 mM EDTA, and 0.1% gelatin. About 20-30×10^7 cells were obtained from one guinea pig.
The PMNL suspension was disrupted by five 1/2 second pulse sonications at the setting of 3 in a Branson Sonifier, Model 350, equipped with a microtip. The sonicates were combined and centrifuged at 30,000× g for 10 minutes. The supernatant was kept frozen at -70° C. until use.
Enzyme activity was determined by assaying for 5-HETE formation by first incubating 0.2 ml of the supernatant obtained from the PMNL sonicate with the test compound, 1 mM CaCl2, 2 mM ATP, and 1 mM GSH for 5 minutes at 37° C. The mixture is treated with 5 μM ^14 C-arachidonicacid and incubated at 37° C. an additional 10 minutes. The enzyme reaction was then stopped by the addition of 10 μl of 1M citric acid and 10μl of an alcohol solution containing 20 mg/ml each of indomethacin and butylated hydroxyanisole (BHA). The reaction mixture was spotted (50 μl on a silica gel plate (Baker TLC plate S1250-PA-19C) and subjected to TLC in a solvent system of ethyl acetate/2,2,4-trimethylpentane/glacial acetic acid/water (90:50:20:100).
The radioactivity of the arachidonic acid and its metabolites (5-HETE and LTB4) was visualized from a developed x-ray film which had been exposed to the TLC plate 1-2 days. The amount of 5-HETE formed was quantitated by scraping the silica gel area corresponding to the spot on the x-ray film, and the radioactivity determined in a Isocap/300 liquid scintillation counter (Searle Analytic, Inc.).
The percent inhibition of the formation of 5-HETE was determined for each concentration of test compound tested as compared to a control experiment wherein no test compound was added. The concentration and percent inhibition values were plotted on semi log paper and the concentration in which formation of 5-HETE is inhibited by 50% (IC50) was determined by interpolation.

SMILES | inhibition at 30 µg/mL [1] [%] | IC50 (5-lipoxygenase) [µM]
CCCc1c(OCCCCC(=O)N(CC)CC)ccc(C(=O)c2ccccc2OC)c1OC [Example 31, N,N-Diethyl-5-[3-methoxy-4-(2-methoxybenzoyl)-2-propylphenoxy]pentanamide] | < 5 | 17.6
CCCc1c(OCCCCc2nnnn2C)ccc(C(=O)c2ccccc2OC)c1O [Example 33, (2-Hydroxy-4-[4-(1-methyl-1H-tetrazol-5-yl)butoxy]3-propylphenyl)(2-methoxyphenyl)methanone] | 0 | 0.707
